In paper PMC9354243, “The Role of Tryptophan in π Interactions in Proteins: An Experimental Approach” (Journal of the American Chemical Society, 2022):
Where two headings read alike, the source gives them in different places.

What was measured:
4,5,6,7tetraFW-LmrR = 4,5,6,7tetraFW-LmrR (Lactococcus lactis subsp. cremoris, UniProt A2RI36); test: biochemical; assay type: binding; conditions: for Fold decrease of LmrR binding affinity, W-LmrR to 4,5,6,7tetraFW-LmrR: equals enhancement of affinity by π–π stacking; for Kd: Binding affinity, Kd, 4,5,6,7tetraFW LmrR, SPR, mean ± SD n = 3
Description: (§1) LmrR binds different drugs including Dau and RBF.[19],[20] To investigate the importance of π–π interactions for drug binding, the electron density in the π electron cloud of W96 was modulated by progressive fluorination of the W96 indole side chain.
The thermodynamics of the LmrR–Dau interaction was recently reported to be mostly entropy driven.[21] To investigate this point in more detail the temperature dependence of the LmrR–Dau interaction was studied by surface plasmon resonance (SPR) experiments at 10 and 25 °C. […]
(§2) MALDI-TOF. A purified LmrR solution (~6 mg/ml) was diluted to ~0.5 mg/ml with 100 mM NH4HCO3, and incubated with 5 µg/ml of trypsin during 2 h at 37 °C. 1 µl of digested LmrR was spotted, dried and quickly washed with 1 µl MilliQ water twice. Subsequently, 1 µl of matrix solution (10 mg/ml α- cyano-4-hydroxycinnamate (LaserBio Labs) in 50 % acetonitrile/0.1 % (v/v) trifluoroacetic acid) was spotted on top of the washed sample. Spots were measured using a Voyager DE-PRO MALDI-TOF (time of flight) instrument (Applied Biosystems). The incorporation efficiency of Trp analog was calculated after measuring the peak areas of the peptide conta ining either Trp or Trp analog.
(§3) Binding assays - surface plasmon resonance (SPR). LmrR and mutants were immobilized on a CM5 sensor chip and binding of drugs was monitored using a BIACORE3000 system. The binding responses of Dau and RBF to LmrR were measured in triplicate at both 25 °C and 10 °C, in HBS-EP running buffer (10 mM HEPES, pH 7.4, 150 mM NaCl, 50 µM EDTA, and 0.005% surfactant P-20). The binding responses were corrected by subtracting the response measured in the control lane, to which a […]
This protein, 4-oxalocrotonate tautomerase mutant Ala33Asp15 was a gift of J.-Y. van der Meer. Steady state responses after injection

5,6diFW-LmrR = 5,6diFW-LmrR (Lactococcus lactis subsp. cremoris, UniProt A2RI36); test: SPR binding of drugs to immobilized 5,6diFW-LmrR; conditions: for Kd: Binding affinity, Kd, 5,6diFW LmrR, SPR, mean ± SD n = 3
Description: as §1, with “chain. The binding affinities of LmrR for Dau and RBF decreased upon increasing degrees of fluorination of W96 (Table 2, Figure S3). […] Dau behaved less extreme, with the kd […] 6-fold (Table 2).” for “chain.”
(§4) The thermodynamics of the LmrR–Dau interaction was recently reported to be mostly entropy driven.[21] To investigate this point in more detail the temperature dependence of the LmrR–Dau interaction was studied by surface plasmon resonance (SPR) experiments at 10 and 25 °C. […] The average ΔΔG from 6 LmrR variants is around 0.1 kJ/mol. These values imply that the temperature effects on the ΔGs are negligible, which would be in line with a low contribution of entropic factors to the Dau–LmrR interaction.
(§5) The SPR assays can also inform on the kinetics of the LmrR-drug interaction, but for the assays at 25 °C, the kon and koff rates could not be analyzed properly, because the rates were too fast at those conditions. The koff rates increase when the electron density of the π-electron cloud in W96 decreases, in support of a sizable contribution of the π–π stacking interaction to the drug binding affinity. […]
as §2, §3
(§6) This protein, 4-oxalocrotonate tautomerase mutant Ala33Asp15 was a gift of J.-Y. van der Meer. Steady state responses after injection of serial dilutions of Dau and RBF were used for the determination of the dissociation constant (K d) values, using the BIAevaluation v.4.1 (GE Healthcare ) and GraphPad Prism v5.00 software . The One site-Total equation from GraphPad Prism software was used for the calculation of Kd as follows:
(§7) Y=Bmax*X/(Kd+X) + NS*X + Background . Equilibrium response Y is obtained at ligand concentration X.
(§8) Bmax represents the maximum specific binding response to the same sensorchip. NS is the slope of nonspecific binding in Y units divided by X units. […]
(§9) without addition of ligand. Binding free energies, ΔGs, were derived from the dissociation constant K d according to […].
(§10) Where possible, rate constants were determined using the BIAevaluation v.4.1 (GE Healthcare ) software. k off values were determined by fitting a 1:1 (Langmuir ) binding model . Each koff value is the average of 3 determinations.

5FW-LmrR = 5FW-LmrR (Lactococcus lactis subsp. cremoris, UniProt A2RI36); test: SPR binding of drugs to immobilized 5FW-LmrR; conditions: for Kd: Binding affinity, SPR, mean ± SD n = 3
Description: as §1, with “chain. The binding affinities of LmrR for Dau and RBF decreased upon increasing degrees of fluorination of W96 (Table 2, Figure S3). […] Dau behaved less extreme, with the kd […] 6-fold (Table 2).” for “chain.”
as §4, §5, §2, §3, §6, §7, §8, §9, §10

5,6,7triFW-LmrR = 5,6,7triFW-LmrR (Lactococcus lactis subsp. cremoris, UniProt A2RI36); test: SPR binding of drugs to immobilized 5,6,7triFW-LmrR; conditions: for Kd: Binding affinity, Kd, 5,6,7triFW LmrR, SPR, mean ± SD n = 3
Description: as §1, with “chain. The binding affinities of LmrR for Dau and RBF decreased upon increasing degrees of fluorination of W96 (Table 2, Figure S3). […] Dau behaved less extreme, with the kd […] 6-fold (Table 2).” for “chain.”
as §4, §5, §2, §3, §6, §7, §8, §9, §10

LmrR labeled with 5MeW = LmrR labeled with 5MeW (Lactococcus lactis subsp. cremoris, UniProt A2RI36); test: SPR binding of drugs to immobilized LmrR labeled with 5MeW; conditions: for Kd: Binding affinity, SPR, mean ± SD n = 3
Description: as §1, with “chain. The binding affinities of LmrR for Dau and RBF decreased upon increasing degrees of fluorination of W96 (Table 2, Figure S3). […] Dau behaved less extreme, with the kd […] 6-fold (Table 2).” for “chain.”
as §4, §5, §2, §3, §6, §7, §8, §9, §10

W-LmrR = W-LmrR (Lactococcus lactis subsp. cremoris, UniProt A2RI36); test: SPR binding of drugs to immobilized wild type LmrR (W-LmrR); conditions: for Contribution of the π–π interactions to the total binding energy: extrapolation with 4,5,6,7tetraFW as baseline; for Kd: W (wild type) LmrR, SPR, mean ± SD n = 3
Description: as §1, with “chain. The binding affinities of LmrR for Dau and RBF decreased upon increasing degrees of fluorination of W96 (Table 2, Figure S3). […] Dau behaved less extreme, with the kd […] 6-fold (Table 2).” for “chain.”
as §4, §5, §2, §3, §6, §7, §8, §9, §10

[1] = 4,5,6,7tetraFW LmrR, 25 °C, derived from Kd
[2] = 5,6diFW LmrR, 25 °C, derived from Kd
[3] = 5FW LmrR, 25 °C, derived from Kd
[4] = 5,6,7triFW LmrR, 25 °C, derived from Kd
[5] = 5MeW LmrR, 25 °C, derived from Kd

Chain of W-LmrR (A2RI36 entry or part of it): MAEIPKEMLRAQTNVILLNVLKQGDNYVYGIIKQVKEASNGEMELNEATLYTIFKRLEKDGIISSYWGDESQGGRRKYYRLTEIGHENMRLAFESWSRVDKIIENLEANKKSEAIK
Chain of 4,5,6,7tetraFW-LmrR (A2RI36 entry or part of it): as above
Chain of 5,6diFW-LmrR (A2RI36 entry or part of it): as above
Chain of 5,6,7triFW-LmrR (A2RI36 entry or part of it): as above
Chain of LmrR labeled with 5MeW (A2RI36 entry or part of it): as above
Chain of 5FW-LmrR (A2RI36 entry or part of it): as above

## COc1cccc2c1C(=O)c1c(O)c3c(c(O)c1C2=O)C[C@@](O)(C(C)=O)C[C@@H]3O[C@H]1C[C@H](N)[C@H](O)[C@H](C)O1 [Dau, Daunomycin]
4,5,6,7tetraFW-LmrR
  koff: 1.5 ± 0.09 s⁻¹
4,5,6,7tetraFW-LmrR; 4,5,6,7tetraFW LmrR
  ΔΔG, ΔG10 °C – ΔG25 °C: 0.072 kcal/mol
4,5,6,7tetraFW-LmrR; 4,5,6,7tetraFW LmrR, 10 °C, derived from Kd
  Free energy of ligand binding ΔG10 °C: –31.3 kJ/mol
4,5,6,7tetraFW-LmrR; [1]
  Free energy of ligand binding ΔG25 °C: –31.6 kJ/mol
4,5,6,7tetraFW-LmrR; 25 °C
  Fold decrease of LmrR binding affinity, W-LmrR to 4,5,6,7tetraFW-LmrR: 6 fold
  Kd: 2.88 ± 0.5 µM
4,5,6,7tetraFW-LmrR; 10 °C
  Kd: 1.68 ± 0.07 µM
5,6diFW-LmrR; 5,6diFW LmrR
  ΔΔG, ΔG10 °C – ΔG25 °C: 0.048 kcal/mol
5,6diFW-LmrR; 5,6diFW LmrR, 10 °C, derived from Kd
  Free energy of ligand binding ΔG10 °C: –33.9 kJ/mol
5,6diFW-LmrR; [2]
  Free energy of ligand binding ΔG25 °C: –34.1 kJ/mol
5,6diFW-LmrR; 10 °C
  Kd: 0.56 ± 0.05 µM
5,6diFW-LmrR; 25 °C
  Kd: 1.05 ± 0.06 µM
5FW-LmrR
  koff: 0.6 ± 0.001 s⁻¹
5FW-LmrR; 5FW LmrR
  ΔΔG, ΔG10 °C – ΔG25 °C: 0.22 kcal/mol
5FW-LmrR; 5FW LmrR, 10 °C, derived from Kd
  Free energy of ligand binding ΔG10 °C: –35.5 kJ/mol
5FW-LmrR; [3]
  Free energy of ligand binding ΔG25 °C: –36.4 kJ/mol
5FW-LmrR; 5FW LmrR, 10 °C
  Kd: 0.28 ± 0.04 µM
5FW-LmrR; 5FW LmrR, 25 °C
  Kd: 0.43 ± 0.08 µM
5,6,7triFW-LmrR
  koff: 0.8 ± 0.1 s⁻¹
5,6,7triFW-LmrR; 5,6,7triFW LmrR
  ΔΔG, ΔG10 °C – ΔG25 °C: –0.4 kJ/mol
5,6,7triFW-LmrR; 5,6,7triFW LmrR, 10 °C, derived from Kd
  Free energy of ligand binding ΔG10 °C: –33.7 kJ/mol
5,6,7triFW-LmrR; [4]
  Free energy of ligand binding ΔG25 °C: –33.3 kJ/mol
5,6,7triFW-LmrR; 10 °C
  Kd: 0.59 ± 0.06 µM
5,6,7triFW-LmrR; 25 °C
  Kd: 1.44 ± 0.1 µM
LmrR labeled with 5MeW
  koff: 0.2 ± 0.04 s⁻¹
LmrR labeled with 5MeW; 5MeW LmrR
  ΔΔG, ΔG10 °C – ΔG25 °C: –1.1 kJ/mol
LmrR labeled with 5MeW; 5MeW LmrR, 10 °C, derived from Kd
  Free energy of ligand binding ΔG10 °C: –37.8 kJ/mol
LmrR labeled with 5MeW; [5]
  Free energy of ligand binding ΔG25 °C: –36.7 kJ/mol
LmrR labeled with 5MeW; 5MeW LmrR, 10 °C
  Kd: 0.104 ± 0.005 µM
LmrR labeled with 5MeW; 5MeW LmrR, 25 °C
  Kd: 0.37 ± 0.03 µM
W-LmrR
  koff: 0.4 ± 0.07 s⁻¹
W-LmrR; 25 °C
  Contribution of the π–π interactions as share of the total binding energy: 13%
  Contribution of the π–π interactions to the total binding energy: -1.15 kcal/mol
W-LmrR; Binding affinity, Kd, 10 °C
  Kd: 0.315 ± 0.04 µM
W-LmrR; Binding affinity, Kd, 25 °C
  Kd: 0.45 ± 0.05 µM
W-LmrR; W LmrR
  ΔΔG, ΔG10 °C – ΔG25 °C: 0.22 kcal/mol
W-LmrR; W LmrR, 10 °C, derived from Kd
  Free energy of ligand binding ΔG10 °C: –35.2 kJ/mol
W-LmrR; W LmrR, 25 °C, derived from Kd
  Free energy of ligand binding ΔG25 °C: –36.2 kJ/mol

## Cc1cc2nc3c(=O)[nH]c(=O)nc-3n(C[C@H](O)[C@H](O)[C@H](O)CO)c2cc1C [RBF, riboflavin]
4,5,6,7tetraFW-LmrR; [1]
  Free energy of ligand binding ΔG25 °C: –25.7 kJ/mol
4,5,6,7tetraFW-LmrR; 25 °C
  Fold decrease of LmrR binding affinity, W-LmrR to 4,5,6,7tetraFW-LmrR: 70 fold
  Kd: 33.4 ± 16 µM
5,6diFW-LmrR; [2]
  Free energy of ligand binding ΔG25 °C: –30.2 kJ/mol
5,6diFW-LmrR; 25 °C
  Kd: 4.99 ± 0.06 µM
5FW-LmrR; [3]
  Free energy of ligand binding ΔG25 °C: –34.3 kJ/mol
5FW-LmrR; 5FW LmrR, 25 °C
  Kd: 0.97 ± 0.05 µM
5,6,7triFW-LmrR; [4]
  Free energy of ligand binding ΔG25 °C: –29.0 kJ/mol
5,6,7triFW-LmrR; 25 °C
  Kd: 8.37 ± 0.2 µM
LmrR labeled with 5MeW; [5]
  Free energy of ligand binding ΔG25 °C: –36.6 kJ/mol
LmrR labeled with 5MeW; 5MeW LmrR, 25 °C
  Kd: 0.38 ± 0.008 µM
W-LmrR; 25 °C
  Contribution of the π–π interactions as share of the total binding energy: 29%
  Contribution of the π–π interactions to the total binding energy: -2.51 kcal/mol
W-LmrR; 25 °C, read-out: Binding affinity, Kd
  Kd: 0.46 ± 0.05 µM
W-LmrR; W LmrR, 25 °C, derived from Kd
  Free energy of ligand binding ΔG25 °C: –36.2 kJ/mol
